Data from US11230535B2, “CFTR regulators and methods of use thereof” (THE REGENTS OF THE UNIVERSITY OF CALIFORNIA, priority 2015, dated 2022).
Entries after “also recorded” stand apart in the source; their conditions may differ.

Tests used:
[1] = Pharmacokinetics in mice (plasma LC/MS); type: in vivo, mouse
Protocol: (§1) All animal experiments were approved by UCSF Institutional Animal Care and Use Committee. Female CD1 mice were treated with 10 mg/kg CFTRact-J027 (saline containing 5% DMSO and 10% Kolliphor HS 15) either intraperitoneally (ip) or orally. Blood was collected at 15, 30, 60, 150, 240 and 360 min after treatment by orbital puncture and centrifuged at 5000 rpm for 15 min to separate plasma. Plasma samples (60 μL) were mixed with 300 μL acetonitrile and centrifuged at 13000 rpm for 20 min, and 90 μL of the supernatant was used for LC/MS. The solvent system consisted of a linear gradient from 5 to 95% acetonitrile over 16 min (0.2 ml/min flow). Mass spectra was acquired on a mass spectrometer (Waters 2695 and Micromass ZQ) using electrospray (+) ionization, mass ranging from 100 to 1500 Da, cone voltage 40 V. Calibration standards were prepared in plasma from untreated mice to which known amounts of CFTRact-J027 were added.
as §1, with “Pharmacokinetics. All” for “All”

[2] = system: closed mid-jejunal loops of cystic fibrosis mice; assay: In vivo intestinal fluid absorption in closed mid-jejunal loops of CF mice; design: species or system mouse; conditions: 30 min
Protocol: Mice (wildtype or CF) were given access to 5% dextrose water but not solid food for 24 h before experiments. Mice were anesthetized with isoflurane and body temperature was maintained during surgery at 36-38° C. using a heating pad. A small abdominal incision was made to expose the small intestine, and closed mid-jejunal loops (length 2-3 cm) were isolated by sutures. Loops were injected with 100 μL vehicle alone or 100 μg CFTRact-J027 in vehicle. The abdominal incision was closed with sutures, and mice were allowed to recover from anesthesia. Intestinal loops were removed at 90 min and loop length and weight were measured to quantify fluid secretion. Intestinal absorption was measured in CF mice (to prevent secretion) as described above, except that the loops were removed at 0 or 30 min. Absorption was calculated as 1−(loop weight at 0 min−loop weight at 30 min)/loop weight at 0 min.
In vivo intestinal secretion and absorption. Mice (wildtype or CF) were given access to 5% dextrose water but not solid food for 24 h before experiments. […] Intestinal loops were removed at 90 min and loop length and weight were measured to quantify fluid secretion. Intestinal absorption was measured in CF mice (to prevent secretion) as described above, except that the loops were removed at 0 or 30 min. Absorption was calculated as 1−(loop weight at 0 min−loop weight at 30 min)/loop weight at 0 min.

ΔF508-CFTR = molecular target: T1, ΔF508-CFTR (Homo sapiens, UniProt P13569, DEL508-508); assay: Short-circuit current in FRT cells expressing ΔF508-CFTR after corrector (VX-809); type: cell-based; conditions: overnight corrector
T1 construct: expressed in transfected cells; host or cells: Fischer rat thyroid (FRT) cells
Protocol: FIGS. 9A-9E. Characterization of CFTR activation by CFTRact-J027. Short-circuit current measured in FRT cells expressing human wild-type CFTR (FIG. 9A) and ΔF508-CFTR (FIG. 9C) showing responses to indicated concentrations of forskolin (fsk), CFTRact-J027, and VX-770. The ΔF508-CFTR-expressing FRT cells were corrected with 3 μM VX-809 at 37° C. for 24 h before measurement. CFTRinh-172 (Inh-172, 10 μM) was added where indicated. FIG. 9B. CFTRact-J027 concentration-dependent activation of wild-type CFTR Cl^− current (S.E.; n=3 cultures). FIG. 9D. Short-circuit current in mouse colon showing responses to indicated concentrations of forskolin (fsk), CFTRact-J027, and CFTRinh-172. FIG. 9E. Assay of cAMP concentration in FRT cells measured following 10-min incubation with indicated concentrations of forskolin and 5 μM CFTRact-J027. Positive controls included forskolin (100 nM and 20 μM), and forskolin plus 3-isobutyl-1-methylxanthine (IBMX, 100 μM) (mean±SE, n=4-8).
The increase in current at high CFTRact-J027 was further increased by forskolin, which may be a consequence of activation of a basolateral membrane cAMP-sensitive K^+ channel that increases the driving force for apical membrane Cl^− secretion.

T1 sequence (P13569 with tags, fused parts or gaps DEL508-508): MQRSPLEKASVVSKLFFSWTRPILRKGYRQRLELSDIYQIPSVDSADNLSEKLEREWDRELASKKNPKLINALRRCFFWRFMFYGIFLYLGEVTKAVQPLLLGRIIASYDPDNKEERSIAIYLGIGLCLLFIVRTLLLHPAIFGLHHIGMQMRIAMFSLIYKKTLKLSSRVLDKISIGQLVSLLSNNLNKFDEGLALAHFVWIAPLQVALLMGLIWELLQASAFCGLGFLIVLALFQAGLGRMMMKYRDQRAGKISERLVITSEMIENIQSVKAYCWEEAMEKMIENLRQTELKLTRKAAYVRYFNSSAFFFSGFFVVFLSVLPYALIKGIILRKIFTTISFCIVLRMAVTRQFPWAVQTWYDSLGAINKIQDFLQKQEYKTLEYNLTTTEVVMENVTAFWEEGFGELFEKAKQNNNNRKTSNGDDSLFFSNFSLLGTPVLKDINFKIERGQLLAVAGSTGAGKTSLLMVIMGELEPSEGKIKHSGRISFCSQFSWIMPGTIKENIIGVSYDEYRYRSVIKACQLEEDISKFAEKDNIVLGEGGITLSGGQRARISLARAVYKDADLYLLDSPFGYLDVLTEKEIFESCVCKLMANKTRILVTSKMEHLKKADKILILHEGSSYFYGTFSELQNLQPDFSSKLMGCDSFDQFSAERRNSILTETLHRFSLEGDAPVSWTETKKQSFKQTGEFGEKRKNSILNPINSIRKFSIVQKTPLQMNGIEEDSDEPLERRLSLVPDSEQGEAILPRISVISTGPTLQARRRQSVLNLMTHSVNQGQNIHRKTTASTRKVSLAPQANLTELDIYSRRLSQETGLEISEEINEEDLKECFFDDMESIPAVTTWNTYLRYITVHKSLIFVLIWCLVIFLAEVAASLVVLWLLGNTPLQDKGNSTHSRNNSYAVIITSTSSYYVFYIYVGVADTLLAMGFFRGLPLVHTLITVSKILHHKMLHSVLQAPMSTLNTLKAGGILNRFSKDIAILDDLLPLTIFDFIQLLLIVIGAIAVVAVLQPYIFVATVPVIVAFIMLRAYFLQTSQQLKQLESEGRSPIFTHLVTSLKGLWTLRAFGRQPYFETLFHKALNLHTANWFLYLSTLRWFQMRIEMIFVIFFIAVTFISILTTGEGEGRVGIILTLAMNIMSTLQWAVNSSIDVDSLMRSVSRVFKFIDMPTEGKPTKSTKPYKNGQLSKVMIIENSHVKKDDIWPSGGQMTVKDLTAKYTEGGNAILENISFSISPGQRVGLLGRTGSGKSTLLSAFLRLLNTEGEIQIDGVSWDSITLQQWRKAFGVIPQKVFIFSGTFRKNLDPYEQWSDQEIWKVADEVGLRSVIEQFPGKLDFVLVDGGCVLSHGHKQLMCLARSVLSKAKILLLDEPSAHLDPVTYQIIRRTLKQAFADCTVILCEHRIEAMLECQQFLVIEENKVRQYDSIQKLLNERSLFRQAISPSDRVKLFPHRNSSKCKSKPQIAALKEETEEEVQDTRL

Nc1ccc([N+](=O)[O-])cc1-c1nc2ccccc2n(Cc2ccccc2)c1=O [CFTRact-J027, 3-(2-amino-5-nitrophenyl)-1-benzylquinoxalin-2(1H)-one]
serum elimination half-life ([1]; 10 mg/kg ip): ~16 min | serum concentration at 150 min ([1]; 10 mg/kg ip, 150 min): undetectable | bioavailability, in words ([1]; 10 mg/kg oral): very low bioavailability; also recorded: minimal bioavailability | blood levels ([1]; 10 mg/kg oral): < 200 nM | serum concentration at other time points ([1]; 10 mg/kg oral): undetectable | serum concentration at 30 min ([1]; 10 mg/kg oral, 30 min): 180 nM | intestinal fluid absorption [2]: did not affect intestinal fluid absorption | potentiation of ΔF508-CFTR (ΔF508-CFTR): substantially less potent than ivacaftor; also recorded: only a weak potentiator
